Patent publication EP3294317B1, “ENHANCED ANTIBIOTIC COMPOSITION” (Universitat Autònoma de Barcelona, priority 2015, dated 2016)

Experiments:
[1] = system: Escherichia coli ATCC 9637; test: Colistin broth microdilution MIC with potentiator compounds (Example 1); type: cell-based; details: E. coli ATCC 9637; MIC in the presence of 1.0% DMSO / MIC in the presence of 0.1 mM potentiator compound and 1.0% DMSO; positive = increased, negative = decreased susceptibility, 1 = no effect
A. baumannii ATCC 15308 = test: Broth microdilution MIC of other antibiotics with potentiator compounds (Example 2); type: cell-based, Acinetobacter baumannii
Experimental: (§1) Following the procedure of Example 1, ciprofloxacin, amikacin, levofloxacin, tigecycline, imipenem and the combination trimethoprim/sulfamethoxasole (1:19) were tested. All were purchased from Sigma-Aldrich Co.
(§2) Minimal inhibitory concentration (MIC) of the antibiotic or the test combinations were determined by the broth microdilution method.
(§3) Antibiotic stock solutions were prepared according to CLSI recommendations and sterilizing by passage through 0.20 µm filters.
(§4) Antimicrobial susceptibility testing of these isolates was performed using the broth microdilution (BMD) method, according to CLSI guidelines.
(§5) The fold increase in bacterial susceptibility to antibiotics when combined with the potentiator compound (expressed as MIC in the presence of 1.0% DMSO / MIC in the presence of 0.1 mM of each potentiator compound and 1.0% DMSO) are shown in Table 4: […]

P. aeruginosa ATCC 27853 = test: as above; type: cell-based, Pseudomonas aeruginosa; details: any of ciprofloxacin, amikacin, levofloxacin, tigecycline, imipenem, TMP/SMX (1:19), 0.1 mM potentiator, 1.0% DMSO, 'none' = no antibiotic potentiated
Experimental: as §1, §2, §3, §4, §5

A. baumannii 6799 = test: Broth microdilution MIC of other antibiotics with potentiator compounds, clinical isolates (Example 4); type: cell-based, Acinetobacter baumannii
Experimental: (§6) Following the procedure of Example 3, ciprofloxacin, amikacin, levofloxacin, imipenem and the combination trimethoprim/sulfamethoxasole (1:19) were tested. All were purchased from Sigma-Aldrich Co.
as §2, §3, §4
(§7) The fold increase in bacterial susceptibility to antibiotics when combined with the potentiator compound (expressed as MIC in the presence of 1.0% DMSO / MIC in the presence of 0.1 mM of each potentiator compound and 1.0% DMSO) are shown in Table 7: […]

A. baumannii 6963 = test: as above; type: cell-based, Acinetobacter baumannii; details: MIC in 1.0% DMSO / MIC with 0.1 mM compound and 1.0% DMSO
Experimental: as §6, §2, §3, §4, §7

S. aureus F-182 = test: Broth microdilution MIC of compound of formula I alone (Example 5); type: cell-based; details: Staphylococcus aureus, ATCC43300, Reference strain, ATCC 43300 (CLSI standard), read-out: Compound of formula I MIC in the presence of 1.0% DMSO
Experimental: (§8) The antimicrobial effect of the compound of formula I of the invention was tested in front of specific Gram-positive bacterium, Staphylococcus aureus, an agent usually involved in hospital-acquired infections. For this experiment the S. aureus reference and clinical isolates shown in Table 8 were used, including Methicillin-resistant S. aureus (MRSA): TABLE 8
(§9) Antimicrobial susceptibility testing of these isolates was performed using the broth microdilution (BMD) method, according to CLSI guidelines (Example 1).
(§10) Selected compound of formula I was first dissolved in 100% of sterile-filtered dimethyl sulfoxide (DMSO, Sigma, D2438) to 20 mM. 100 µL of bacterial suspension (final OD550nm=0.01) in MHB were added to the compound dilutions in each well (concentration range from 0.2 mM to 3.125 µM), and the final suspension was mixed and incubated without shaking at 37° C for 24 h before developing with 30 µL of a 0.01% aqueous solution of resazurin. For the experiment all bacteria were first grown overnight in CAMHB using CLSI recommended incubation conditions.
(§11) The compound MIC, expressed in mM, was defined as the lowest concentration of compound at which no visible growth was obtained.

S. aureus Newman = test: as above; type: cell-based; details: Staphylococcus aureus, NBRC102137 / NEWMAN, Reference strain, NBRC 102137, read-out: Compound of formula I MIC in the presence of 1.0% DMSO
Experimental: as §8, §9, §10, §11

S. aureus RN4220 = test: as above; type: cell-based; details: Staphylococcus aureus, RN4220, read-out: Compound of formula I MIC in the presence of 1.0% DMSO
Experimental: as §8, §9, §10, §11

S. aureus RN6390 = test: as above; type: cell-based; details: Staphylococcus aureus, RN6390, read-out: Compound of formula I MIC in the presence of 1.0% DMSO
Experimental: as §8, §9, §10, §11

S. aureus RN6911 = test: as above; type: cell-based; details: Staphylococcus aureus, RN6911, read-out: Compound of formula I MIC in the presence of 1.0% DMSO
Experimental: as §8, §9, §10, §11

S. aureus SA0001 = test: as above; type: cell-based; details: Staphylococcus aureus, Clinical strain, (resistant to penicillin), read-out: Compound of formula I MIC in the presence of 1.0% DMSO
Experimental: as §8, §9, §10, §11

S. aureus SA0002 = test: as above; type: cell-based; details: Staphylococcus aureus, Clinical strain, (resistant to penicillin), read-out: Compound of formula I MIC in the presence of 1.0% DMSO
Experimental: as §8, §9, §10, §11

S. aureus SA0003 = test: as above; type: cell-based; details: Staphylococcus aureus, Clinical strain, (resistant to penicillin), read-out: Compound of formula I MIC in the presence of 1.0% DMSO
Experimental: as §8, §9, §10, §11

S. aureus SA0004 = test: as above; type: cell-based; details: Staphylococcus aureus, Clinical strain, (MRSA, and resistant to ciprofloxacin and cloxacillin), read-out: Compound of formula I MIC in the presence of 1.0% DMSO
Experimental: as §8, §9, §10, §11

S. aureus Seatle 1945 = test: as above; type: cell-based; details: Staphylococcus aureus, ATCC25923, Reference strain, ATCC 25923, read-out: Compound of formula I MIC in the presence of 1.0% DMSO
Experimental: as §8, §9, §10, §11

S. aureus USA 300 = test: as above; type: cell-based; details: Staphylococcus aureus, ATCC BAA-1556 / MRSA / USA300, Reference strain, read-out: Compound of formula I MIC in the presence of 1.0% DMSO
Experimental: as §8, §9, §10, §11

S. aureus V8 = test: as above; type: cell-based; details: Staphylococcus aureus, ATCC49775, Reference strain, ATCC 49775, read-out: Compound of formula I MIC in the presence of 1.0% DMSO
Experimental: as §8, §9, §10, §11

[2] = MIC in 1.0% DMSO / MIC with 0.1 mM potentiator compound and 1.0% DMSO
[3] = MIC in 1.0% DMSO / MIC with 0.1 mM compound and 1.0% DMSO

With CN(C)CCNC(=O)c1cccc(CNC(=O)Nc2ccc3c(c2)Cc2ccccc2-3)c1 [I, N-[2-(dimethylamino)ethyl]-3-[(9H-fluoren-2-ylcarbamoylamino)methyl]benzamide] the “Fold increase in bacterial susceptibility to colistin” value [1] was “+2 fold”, the “Fold increase in bacterial susceptibility to Imipenem” value (shortened to “Fold increase … to Imipenem”) (A. baumannii ATCC 15308; [2]) was 2 fold and the “Fold increase in bacterial susceptibility to Levofloxacin” value (“Fold increase … to Levofloxacin” for short) (A. baumannii ATCC 15308; [2]) was 4 fold. For the same compound, the “Fold increase in bacterial susceptibility to Tigecycline” value (A. baumannii ATCC 15308; [2]) was 2 fold, the “Fold increase in bacterial susceptibility to TMP/SMX” value (A. baumannii ATCC 15308; Trimethoprim:sulfamethoxazole 1:19, MIC in 1.0% DMSO / MIC with 0.1 mM potentiator compound and 1.0% DMSO) was 4 fold and the “Fold increase in bacterial susceptibility to antibiotic indicated” value (P. aeruginosa ATCC 27853) was “none”. The “Fold increase in bacterial susceptibility to Amikacin” value (A. baumannii 6799; [3]) was 2 fold, the “Fold increase in bacterial susceptibility to Ciprofloxacin” value (A. baumannii 6799; [3]) was 8 fold and the “Fold increase … to Imipenem” value (A. baumannii 6799; [3]) was 4 fold. The “Fold increase … to Levofloxacin” value (A. baumannii 6799; [3]) was 2 fold, the “Fold increase in bacterial susceptibility to TMP/SMX” value (A. baumannii 6799; Trimethoprim:sulfamethoxazole 1:19, MIC in 1.0% DMSO / MIC with 0.1 mM compound and 1.0% DMSO) was 2 fold and the “Fold increase in bacterial susceptibility to Ciprofloxacin” value (A. baumannii 6963) was “Ciprofloxacin (2) Levofloxacin (2) Imipenem (2) fold”. For the same compound, the “Fold increase … to Imipenem” value (A. baumannii 6963) was “Ciprofloxacin (2) Levofloxacin (2) Imipenem (2) fold”, the “Fold increase … to Levofloxacin” value (A. baumannii 6963) was “Ciprofloxacin (2) Levofloxacin (2) Imipenem (2) fold” and the MIC (S. aureus F-182) was 200 µM. The MIC (S. aureus Newman) was 200 µM, the MIC (S. aureus RN4220) was 200 µM and the MIC (S. aureus RN6390) was 200 µM. For the same compound, the MIC (S. aureus RN6911) was 200 µM, the MIC (S. aureus SA0001) was 200 µM and the MIC (S. aureus SA0002) was 100 µM. For the same compound, the MIC (S. aureus SA0003) was 100 µM, the MIC (S. aureus SA0004) was 200 µM and the MIC (S. aureus Seatle 1945) was 200 µM. The MIC (S. aureus USA 300) was 200 µM and the MIC (S. aureus V8) was 200 µM.
